Assay results from patent publication US5773413A, “Method of combating mammalian neoplasias, and lytic peptides therefor” (Demeter Biotechnologies, Ltd., priority 1995, dated 1998).
Where a SMILES comes first, the peptide text is derived from it. [ ]: non-standard residue; d: D form. The star is where a group is joined. NMe2Phe = CN(C)[C@@H](Cc1ccccc1)C(=O)*; Lys(Me2) = CN(C)CCCC[C@H](N)C(=O)O

Key:
[1] = ALD evaluation, iv administration in mouse; assay type: in vivo; details: for μg/dose (Miv), lethal dose / μmol Miv, lethal dose: iv administration in mouse; for [μM] T = 0, lethal concentration: second value of the cell (single value for D5-F), assigned to mouse iv because it fits μmol Miv; for Lethality, verification dosing / Lethality: mice; for Lethality, verification dosing: one animal previously exposed to 0.01 μM
Description: (§1) In the following description, Riv=iv administration in rat, Rim=intramuscular administration in rat, Miv=iv administration in mouse, and Mim=intramuscular administration in mouse.
(§2) Lethality data and clinical observations were collected during the ALD evalution of the peptides denoted D5-F, DP-1, DP-1m. The data presented below are complete for D5-F and DP-1.
(§3) For all three compounds, two replicates were performed with both mice and rats. In the first replicate, the animals (one animal/dose) were exposed to a range of doses, 10.0, 5.0, 2.5, 1.0, 0.5, 0.25, 0.1, 0.05, 0.025, and 0.01 μM. For the second replicate, the lethal dose was diluted to produce an intermediate dose between the lethal dose and the subsequent nonlethal dose.
Replicate 2: For D5F and DP1, the high dose was diluted to 7.5 μM for the second replicate. The doses administered were 7.5, 5.0, 1.0, 0.5, 0.25, 0.1, 0.05, 0.025, and 0.01 μM. D5F was lethal at 7.5 μM, whereas DP1 was not. DP1m was again not lethal to the mice over the treatment levels delivered.
The effects of the highest dose (lethal--D5F and DP1, nonlethal--DP1 m) were verified by dosing one animal with the effective or highest no effect concentration used in Replicate 1. In the case of D5F, the dose of 7.5 μM was used to verify lethality observed in Replicate 2. The mice treated with these compounds were previously exposed to the lowest dose 0.01 μM. The doses were the following: D5F, 7.5 μM; DP1, 10.0 μM; and DP1m, 10.0 μM.

[2] = ALD evaluation, iv administration in rat; assay type: in vivo; details: for [μM] T = 0, lethal concentration: first value of the cell, assigned to rat iv because it fits μmol Riv; for μg/dose (Riv), lethal dose / μmol Riv, lethal dose: iv administration in rat; for Lethality, verification dosing: 10.0 μM, one naive animal
Description: as §1, §2, §3
Replicate2: For all compounds, the high dose was diluted to 7.5 μM for the second replicate. The doses administered were 7.5, 5.0, 2.5, 1.0, 0.5. 0.25, and 0.1 μM. D5F, DP1, and DP1m were lethal at 7.5 μM and were not lethal at the lower doses.
The lethality of the high dose was verified by dosing one animal with the lethal dose determined by Replicate 1. The rats used for the evaluation were remaining from the original shipment and were naive for treatment. The doses were the following: D5F, 10.0 μM; DP1, 10.0 μM; and DP1m, 10.0 μM.

[3] = ALD evaluation, intramuscular administration in rat; assay type: in vivo
Description: as §1, §2
For D5F and DP1, two replicates were performed with rats. In the first replicate, the animals (one animal/dose) were exposed to a range of doses; 10.0, 1.0, 0.1, and 0.01 μM. The dose range used was smaller than that originally planned due to the availability of the compound to prepare an adequate amount of dosing solution.

[4] = Solubility at the concentration required for im administration; assay type: physicochemical
[5] = iv, Replicate 1, lower concentrations (5.0 to 0.01 μM)
[6] = rats, iv, Replicate 1, lower concentrations
[7] = rats, iv, Replicate 2, lower doses (5.0 to 0.1 μM)

CC[C@H](C)[C@H](NC(=O)[C@H](CCCCN)NC(=O)[C@H](CCCNC(=N)N)NC(=O)[C@H](C)NC(=O)[C@H](CC(C)C)NC(=O)[C@H](CCCCN)NC(=O)[C@H](CCCCN)NC(=O)[C@H](CC(C)C)NC(=O)[C@H](CCCNC(=N)N)NC(=O)[C@H](CCCNC(=N)N)NC(=O)CNC(=O)[C@@H](NC(=O)[C@H](CCCNC(=N)N)NC(=O)[C@H](CCCCN)NC(=O)[C@@H](NC(=O)[C@H](C)NC(=O)[C@H](CCCNC(=N)N)NC(=O)[C@H](CCCCN)NC(=O)[C@H](CCCNC(=N)N)NC(=O)[C@@H](N)CCCCN)C(C)C)C(C)C)C(=O)N[C@@H](C)C(=O)N[C@@H](CCCNC(=N)N)C(=O)N[C@@H](CC(C)C)C(=O)NCC(=O)N[C@H](C(=O)N[C@@H](C)C(=O)N[C@@H](Cc1ccccc1)C(=O)O)C(C)C [Peptide 13] (H-KRKRAVKRVGRRLKKLARKIARLGVAF-OH)
μg/dose (Miv), lethal dose [1]: 158.72 μg/dose
μmol Miv, lethal dose [1]: 0.05 µmol
[μM] T = 0, lethal concentration [1]: 2.5 µM
[μM] T = 0, lethal concentration [2]: 2.0 µM
μg/dose (Riv), lethal dose [2]: 1,269.78 μg/dose
μmol Riv, lethal dose [2]: 0.4 µmol
μg/dose (Rim), lethal dose [3]: not lethal
μmol Rim, lethal dose [3]: not lethal

CC(C)C[C@H](NC(=O)[C@H](C)NC(=O)[C@H](CCCCN)NC(=O)[C@H](CCCCN)NC(=O)[C@H](CC(C)C)NC(=O)[C@H](C)NC(=O)[C@H](CCCCN)NC(=O)[C@H](CCCCN)NC(=O)[C@H](CC(C)C)NC(=O)[C@H](CCCCN)NC(=O)[C@H](CCCCN)NC(=O)[C@H](CC(C)C)NC(=O)[C@H](C)NC(=O)[C@H](CCCCN)NC(=O)[C@H](CCCCN)NC(=O)[C@H](CC(C)C)NC(=O)[C@H](C)NC(=O)[C@H](CCCCN)NC(=O)[C@H](CC(C)C)NC(=O)[C@H](C)NC(=O)[C@H](CC(C)C)NC(=O)[C@H](C)NC(=O)[C@@H](N)Cc1ccccc1)C(=O)O [Peptide 19] (H-FALALKALKKALKKLKKALKKAL-OH)
μg/dose (Miv), lethal dose [1]: 625.36 μg/dose
μmol Miv, lethal dose [1]: 0.2 µmol
Lethality, verification dosing ([1]; iv, 10.0 μM): dead within four hours
Lethality ([1]; iv, Replicate 1, 10.0 μM): lethal
Lethality [1, 5]: No lethality
[μM] T = 0, lethal concentration [1]: 10.0 µM
[μM] T = 0, lethal concentration [2]: 7.5 µM
μg/dose (Riv), lethal dose [2]: 4,689.41 μg/dose
μmol Riv, lethal dose [2]: 1.5 µmol
Lethality, verification dosing ([2]; rats, iv): dead within four hours
Lethality ([2]; rats, iv, Replicate 1, 10.0 μM): lethal
Lethality [2, 6]: No lethality
Lethality ([2]; rats, iv, Replicate 2, 7.5 μM): lethal
Lethality [2, 7]: not lethal
μg/dose (Rim), lethal dose [3]: not lethal
μmol Rim, lethal dose [3]: not lethal

CC(C)C[C@H](NC(=O)[C@H](C)NC(=O)[C@H](CCCCN(C)C)NC(=O)[C@H](CCCCN(C)C)NC(=O)[C@H](CC(C)C)NC(=O)[C@H](C)NC(=O)[C@H](CCCCN(C)C)NC(=O)[C@H](CCCCN(C)C)NC(=O)[C@H](CC(C)C)NC(=O)[C@H](CCCCN(C)C)NC(=O)[C@H](CCCCN(C)C)NC(=O)[C@H](CC(C)C)NC(=O)[C@H](C)NC(=O)[C@H](CCCCN(C)C)NC(=O)[C@H](CCCCN(C)C)NC(=O)[C@H](CC(C)C)NC(=O)[C@H](C)NC(=O)[C@H](CCCCN(C)C)NC(=O)[C@H](CC(C)C)NC(=O)[C@H](C)NC(=O)[C@H](CC(C)C)NC(=O)[C@H](C)NC(=O)[C@H](Cc1ccccc1)N(C)C)C(=O)O [Peptide 20] (NMe2Phe-ALAL[Lys(Me2)]AL[Lys(Me2)][Lys(Me2)]AL[Lys(Me2)][Lys(Me2)]L[Lys(Me2)][Lys(Me2)]AL[Lys(Me2)][Lys(Me2)]AL-OH)
μg/dose (Miv), lethal dose [1]: 685.36 μg/dose
μmol Miv, lethal dose [1]: 0.2 µmol
Lethality, verification dosing ([1]; iv, 10.0 μM): dead within four hours
Lethality ([1]; iv, Replicate 1, 10.0 μM): not lethal
Lethality [1, 5]: No lethality
Lethality ([1]; iv, Replicate 2, over the treatment levels delivered): not lethal
Clinical Observations ([1]; mouse, iv, 10 μM, end of tail later sloughed off): discoloration of the tail
[μM] T = 0, lethal concentration [1]: 10.0 µM
[μM] T = 0, lethal concentration [2]: 7.5 µM
μg/dose (Riv), lethal dose [2]: 5,139.41 μg/dose
μmol Riv, lethal dose [2]: 1.5 µmol
Lethality, verification dosing ([2]; rats, iv): dead within four hours
Lethality ([2]; rats, iv, Replicate 1, 10.0 μM): lethal
Lethality [2, 6]: No lethality
Lethality ([2]; rats, iv, Replicate 2, 7.5 μM): lethal
Lethality [2, 7]: not lethal
μg/dose (Rim), lethal dose [3]: not lethal
μmol Rim, lethal dose [3]: not lethal
solubility [4]: poor solubility

CC[C@H](C)[C@H](NC(=O)[C@H](C)NC(=O)[C@H](CCCNC(=N)N)NC(=O)[C@H](CC(C)C)NC(=O)CNC(=O)[C@@H](NC(=O)[C@H](C)NC(=O)[C@@H](N)Cc1ccccc1)C(C)C)C(=O)N[C@@H](CCCCN)C(=O)N[C@@H](CCCNC(=N)N)C(=O)N[C@@H](C)C(=O)N[C@@H](CC(C)C)C(=O)N[C@@H](CCCCN)C(=O)N[C@@H](CCCCN)C(=O)N[C@@H](CC(C)C)C(=O)N[C@@H](CCCNC(=N)N)C(=O)N[C@@H](CCCNC(=N)N)C(=O)NCC(=O)N[C@H](C(=O)N[C@@H](CCCNC(=N)N)C(=O)N[C@@H](CCCCN)C(=O)N[C@H](C(=O)N[C@@H](C)C(=O)N[C@@H](CCCCN)C(=O)N[C@@H](CC(=O)O)C(=O)N[C@@H](CC(C)C)C(=O)O)C(C)C)C(C)C [Peptide 16] (H-FAVGLRAIKRALKKLRRGVRKVAKDL-OH)
μg/dose (Miv), lethal dose [1]: 541.62 μg/dose
μmol Miv, lethal dose [1]: 0.15 µmol
Lethality, verification dosing ([1]; iv, 7.5 μM): dead within four hours
Lethality ([1]; iv, Replicate 1, 10.0 μM): lethal
Lethality [1, 5]: No lethality
Lethality ([1]; iv, Replicate 2, 7.5 μM): lethal
[μM] T = 0, lethal concentration [1]: 7.5 µM
[μM] T = 0, lethal concentration [2]: 7.5 µM
μg/dose (Riv), lethal dose [2]: 5,416.19 μg/dose
μmol Riv, lethal dose [2]: 1.5 µmol
Lethality, verification dosing ([2]; rats, iv): dead within four hours
Clinical Observations ([2]; rats, iv, 2.5 and 5.0 μM, ends of tails later sloughed off): discoloration of the tail
Lethality ([2]; rats, iv, Replicate 1, 10.0 μM): lethal
Lethality [2, 6]: No lethality
Lethality ([2]; rats, iv, Replicate 2, 7.5 μM): lethal
Lethality [2, 7]: not lethal
μg/dose (Rim), lethal dose [3]: not lethal
μmol Rim, lethal dose [3]: not lethal
